# Patent publication US20100179188A1, “NITROXIDE RADICAL AS TREATMENT FOR NEURODEGENERATION” (Office of Technology Transfer, NIH, priority 2007, published 2010)
# Key:
# [1] = molecular target: T1, cytosolic aconitase (Mus musculus, UniProt P28271); assay: In-gel aconitase assay in mouse embryonic fibroblast lysates, cytosolic aconitase; format: cell-based
# T1 construct: Embryonic fibroblasts of 13-day old embryos were isolated from wild type, IRP1−/− mice and IRP2−/− mice; endogenous in cells; host or cells: mouse embryonic fibroblasts (wild type and IRP2−/−)
# T1 sequence (P28271 1-889): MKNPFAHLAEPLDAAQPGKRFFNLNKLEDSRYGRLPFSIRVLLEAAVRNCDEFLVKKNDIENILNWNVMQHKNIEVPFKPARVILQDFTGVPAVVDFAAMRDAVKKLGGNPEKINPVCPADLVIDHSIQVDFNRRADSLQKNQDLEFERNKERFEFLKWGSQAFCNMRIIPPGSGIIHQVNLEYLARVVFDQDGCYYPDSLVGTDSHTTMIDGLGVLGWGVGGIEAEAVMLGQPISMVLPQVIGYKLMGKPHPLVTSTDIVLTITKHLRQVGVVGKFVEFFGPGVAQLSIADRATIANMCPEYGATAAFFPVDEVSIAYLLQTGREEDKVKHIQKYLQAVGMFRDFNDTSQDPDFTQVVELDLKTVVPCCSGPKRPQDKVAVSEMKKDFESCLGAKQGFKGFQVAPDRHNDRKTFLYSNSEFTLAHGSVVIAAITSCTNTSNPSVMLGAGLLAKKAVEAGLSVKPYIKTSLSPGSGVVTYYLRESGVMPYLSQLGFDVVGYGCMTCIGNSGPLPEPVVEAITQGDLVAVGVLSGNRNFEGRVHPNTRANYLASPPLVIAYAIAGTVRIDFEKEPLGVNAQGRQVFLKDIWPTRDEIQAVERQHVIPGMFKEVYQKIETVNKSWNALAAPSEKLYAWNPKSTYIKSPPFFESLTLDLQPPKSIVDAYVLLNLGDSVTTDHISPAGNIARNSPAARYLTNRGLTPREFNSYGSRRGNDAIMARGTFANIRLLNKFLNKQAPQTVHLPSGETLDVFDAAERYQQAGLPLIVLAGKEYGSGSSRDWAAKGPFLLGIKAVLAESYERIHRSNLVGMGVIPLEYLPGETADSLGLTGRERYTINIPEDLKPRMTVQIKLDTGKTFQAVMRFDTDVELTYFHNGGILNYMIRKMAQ
# Experimental: (§1) Cells: Embryonic fibroblasts of 13-day old embryos were isolated from wild type, IRP1−/− mice and IRP2−/− mice as described in LaVaute et al. supra. Myc-tagged HEK 293 Tet-on cell line, in which IRP2 expression was inducible, was prepared and cultured as described Bourdon et al., Blood Cells Mol Dis, 31, 247-255 (2003). Erythroblasts were harvested from bone marrow and purified as described in Cooperman et al., Blood, 106, 1084-1091 (2005).
# Aconitase assay: Aconitase activity gels for human lysates were performed as described in Tong et al., infra, and aconitase activity gels for mouse lysate were performed with the following modifications. The gel was composed of a separating gel containing 6% acrylamide, 132 mM Tris base, 66 mM borate, 3.6 mM citrate, and a stacking gel containing 4% acrylamide, 66 mM Tris base, 33 mM borate, 3.6 mM citrate. The running buffer contains 25 mM Tris pH 8.3, 96 mM glycine, and 3.6 mM citrate. Electrophoresis were carried out at 170 V at 4° C. Spectral aconitase activity was measured by following the method of Fillebeen et al., infra, using cis-aconitate as the substrate.
# To confirm that nitroxide radicals activate IRP1 binding by disassembly of the iron-sulfur cluster, we performed in-gel aconitase assays to determine whether Tempo1 decreased the activity of cytosolic aconitase. […] The band that represented the cytosolic aconitase was readily identified by its absence in lysates from IRP1−/− cells. […]
# To determine whether the effect of Tempo1 on IRP1 activity was kinetically consistent with oxidative disassembly of the iron sulfur cluster, the effect of Tempo1 on aconitase activity was compared to that of the iron chelator, deferiprone (DFO), which activates IRE-binding activity of IRP1 by limiting de novo synthesis and repair of the iron sulfur cluster in IRP1. […] Recovery of aconitase activity was assessed in wild type and IRP2−/− cells.
# [2] = test system: L-ferritin (L-Ft); assay: Western blot of L-ferritin in IRP2−/− embryonic fibroblasts; format: cell-based, mouse; conditions: 0.3 and 1.0 mM, 16 h, with or without FAC
# Experimental: as §1
# Western blotting and antibodies: Protein analysis was carried out as described in LaVaute et al., supra. Equal amounts of protein (20-40 μg/lane) were separated on 13% SDSPAGE and transferred to nitrocellulose membranes. The membrane was blocked with 5% non-fat milk, 0.1% Triton X-100 in PBS and probed at RT in the same blocking buffer. IRP1 antibody was prepared against purified hIRP1 and used at 1:5000 dilution. L-ferritin antibody was raised in rabbit from L-ferritin protein purified from mouse livers. […]
# To study the effect of Tempo1 on the IRE-binding activity of IRP1, IRP2−/− embryonic fibroblasts that were maintained in culture supplemented with 0, 0.3 and 1.0 mM Tempo1, with or without ferric ammonium citrate (FAC), for 16 h. […] Quantification was performed with the IQMac (IRP1 activity) or NIH Image (protein levels) program. Error bars represent the standard deviation calculated from the results of two different sets of experiments.
smiles,measurement,setting,value
CC1(C)CC(O)CC(C)(C)N1[O] [Tempo1],activity of cytosolic aconitase,[1]; lysates from WT and IRP2−/− embryonic fibroblasts,diminished
same,time to reversal of the loss of cytosolic aconitase activity after removal,"[1]; mouse embryonic fibroblasts, 16 hours treatment, then fresh unsupplemented media",≤ 2 h
same,ferritin levels,[2],decreased
